The results in this text go back to patent US20180327367A1, “MACROCYCLIC BROAD SPECTRUM ANTIBIOTICS” (priority 2015, published 2018).

Format in all cases: cell-based
For experiment [1], the system named is Methicillin Resistant Staphylococcus aureus strain USA 300, NRS384. Nature of the experiment: Minimum inhibitory concentration, broth micro-dilution (CLSI), S. aureus. To be noted: Staphylococcus aureus, MRSA / NRS 384 / USA300, 22 h, 35° C., 22 hours. On the procedure:
(§1) In vitro antimicrobial activity of each compound was determined by measuring minimal inhibitor concentrations (MICs) using the broth micro-dilution technique as approved by the Clinical and Laboratory Standards Institute (CLSI) (Methods for Dilution Antimicrobial Susceptibility Tests for Bacteria that Grow Aerobically; Approved Standard—Eighth Edition. CLSI document M07-A8. Wayne, Pa.: Clinical and Laboratory Standards; 2009). Antibacterial activity was measure against three strains of bacteria: a Methicillin Resistant Staphylococcus aureus strain USA 300, NRS384 (S. aureus); a strain of Escherichia coli MC4100 harboring the IMP4213 (E. coli IMP), which results in increased outer-membrane permeability (B Martin and Silhavy T. Imp/OstA is required for cell envelope biogenesis in Escherichia coli. (2002) Molecular Microbiology, 45(5), 1289-1302), and Escherichia coli ATCC 25922 (E. coli), a clinically relevant Gram-negative strain. Cells were inoculated onto plates of Trypyticase Soy Agar or Luria Agar respectively and grown at 35° C. for 20 hours. Inocula suspensions were prepared by scraping cells into 1 mL of testing media (cation adjusted Mueller Hinton Broth supplemented with 0.002% v/v Tween-80) and diluting to a final OD600 nm of 0.01.
(§2) Test compounds were prepared in DMSO at a concentration of 10 mg/mL. […] In protocol 2, the compound stocks were diluted into testing media at a concentration of 4 μg/mL and serial 2-fold dilutions were made in the same media, in 96-well U bottom microtiter dishes, for a total of 10 compound concentrations. In protocol 3, compound stocks were diluted into testing media at a concentration of 0.5 μg/mL, with serial 2-fold dilutions conducted as described above. […] Inocula suspensions were added to the 2-fold serial dilutions of test compounds to a final density of OD OD600 nm of 0.0005 and incubated at 35° C. for 22 hours.
A general note: Broth dilution looks for growth in wells or tubes with falling amounts of substance.

In experiment [2] the test system is Escherichia coli MC4100 harboring the IMP4213 (E. coli IMP). Nature of the experiment: microbe, parasite or virus in culture. Conditions: Escherichia coli, 22 h, read-out: MIC (μg/mL) E. coli IMP, E. coli MC4100 IMP4213, increased outer-membrane permeability; 35° C., 22 hours. As for the experimental part: as §1, §2
For experiment [3], the system named is Escherichia coli ATCC 25922. Nature of the experiment: Minimum inhibitory concentration, broth micro-dilution (CLSI), E. coli. To be noted: Escherichia coli, ATCC25922, 22 h, 35° C., 22 hours. On the procedure: Cells were inoculated onto plates of Trypyticase Soy Agar or Luria Agar respectively and grown at 35° C. for 20 hours. Inocula suspensions were prepared by scraping cells into 1 mL of testing media (cation adjusted Mueller Hinton Broth supplemented with 0.002% v/v Tween-80) and diluting to a final OD600 nm of 0.01.
as §2

Setting [4] is: MRSA USA 300 NRS384, read-out: MIC (μg/mL) S. aureus.
[5] abbreviates: E. coli ATCC 25922, read-out: MIC (μg/mL) E. coli.
The mark [6] stands for this setting: read-out: MIC (μg/mL) S. aureus, MRSA USA 300 NRS384.
[7] abbreviates: read-out: MIC (μg/mL) E. coli, E. coli ATCC 25922.

Converted amounts (≈) assume the structure as drawn. Like-named read-outs stand apart in the source and are kept apart here. Bounds are passed on as bounds.

With `Cc1cc(-c2ccc(CC(C)C)cc2)ncc1C(=O)N[C@@H](CCN)C(=O)N(C)[C@@H]1C(=O)N[C@@H](C)C(=O)N[C@H](C(=O)NCC#N)Cc2ccc(OCCN)c(c2)-c2cc1ccc2OCCN` [Compound 167], the MIC came to 0.023 µg/mL (≈ 0.0259 µM) in experiment [1] (setting [4]), 0.0049 µg/mL (≈ 0.00551 µM) in experiment [2] and 0.14 µg/mL (≈ 0.157 µM) in experiment [3] (setting [5]).

As for `CCCCCCCCCC(=O)NCC(=O)NCC(=O)N[C@@H](CCN)C(=O)N(C)[C@@H]1C(=O)N[C@@H](C)C(=O)N[C@H](C(=O)NCC#N)Cc2ccc(OCCN)c(c2)-c2cc1ccc2OCCN` [Compound 362], the MIC in experiment [1] (setting [6]) was determined as 0.25 µg/mL (≈ 0.276 µM); in experiment [2] it was 0.5 µg/mL (≈ 0.552 µM); in experiment [3] (setting [7]) it was 32 µg/mL (≈ 35.3 µM).

Turning to `CCCCCCCc1ccc(C(=O)N[C@@H](CCN)C(=O)N(C)[C@@H]2C(=O)N[C@@H](C)C(=O)N[C@H](C(=O)NCC#N)Cc3ccc(OCCN)c(c3)-c3cc2ccc3O)c(C)c1` [Compound 315], the MIC in experiment [1] (setting [4]) came out at 0.078 µg/mL (≈ 0.0962 µM); in experiment [2], 0.014 µg/mL (≈ 0.0173 µM); in experiment [3] (setting [5]), 0.38 µg/mL (≈ 0.469 µM).

In the case of `CCCCCCCCCCNCCS(=O)(=O)N(C)[C@@H]1C(=O)N[C@@H](C)C(=O)N[C@H](C(=O)NCC#N)Cc2ccc(OCCN)c(c2)-c2cc1ccc2OCCN` [Compound 351], the MIC in experiment [1] (setting [4]) was 1 µg/mL (≈ 1.27 µM); in experiment [2], greater than 4 µg/mL; in experiment [3] (setting [5]), greater than 64 µg/mL.

`C[C@@H]1NC(=O)[C@@H](N(C)C(=O)[C@H](CCN)NC(=O)CCCC2CCCCC2)c2ccc(OCCN)c(c2)-c2cc(ccc2OCCN)C[C@@H](C(=O)NCC#N)NC1=O` [Compound 126]: the MIC in experiment [1] (setting [4]) turned out to be 0.5 µg/mL (≈ 0.633 µM); in experiment [2], 0.25 µg/mL (≈ 0.316 µM); in experiment [3] (setting [5]), 32 µg/mL (≈ 40.5 µM).

In the case of `Cc1nc(-c2ccc(CC(C)C)cc2)ccc1C(=O)N[C@@H](CCN)C(=O)N(C)[C@@H]1C(=O)N[C@@H](C)C(=O)N[C@H](C(=O)NCC#N)Cc2ccc(O)c(c2)-c2cc1ccc2OCCN` [Compound 502], the MIC worked out at 0.063 µg/mL (≈ 0.0745 µM) in experiment [1] (setting [4]), 0.003 µg/mL (≈ 0.00355 µM) in experiment [2] and 0.25 µg/mL (≈ 0.296 µM) in experiment [3] (setting [5]).

Take `CCCCCCCCCC(=O)N[C@H](CO)C(=O)N[C@@H](CCN)C(=O)N(C)[C@@H]1C(=O)N[C@@H](C)C(=O)N[C@H](C(=O)NCC#N)Cc2ccc(OCCN)c(c2)-c2cc1ccc2OCCN` [Compound 359]: the MIC was determined as 0.063 µg/mL (≈ 0.0717 µM) in experiment [1] (setting [6]), 0.13 µg/mL (≈ 0.148 µM) in experiment [2] and 16 µg/mL (≈ 18.2 µM) in experiment [3] (setting [7]).

As for `CCCCc1ccc(-c2ncc(C(=O)N[C@@H](CCN)C(=O)N(C)[C@@H]3C(=O)N[C@@H](C)C(=O)N[C@H](C(=O)NCC#N)Cc4ccc(OCCN)c(c4)-c4cc3ccc4OCCN)c(C)n2)cc1` [Compound 156], the values for the MIC in experiment [1] (setting [4]), in experiment [2] and in experiment [3] (setting [5]) were 0.016 µg/mL (≈ 0.018 µM), 0.0044 µg/mL (≈ 0.00494 µM) and 0.063 µg/mL (≈ 0.0708 µM), respectively.

For the compound `Cc1cc(C2CC(c3ccccc3)C2)ccc1C(=O)N[C@@H](CCN)C(=O)N(C)[C@@H]1C(=O)N[C@@H](C)C(=O)N[C@H](C(=O)NCC#N)Cc2ccc(OCCN)c(c2)-c2cc1ccc2OCCN` (stereo partly drawn) [Compound 441], the MIC in experiment [1] (setting [4]) came to 0.063 µg/mL (≈ 0.0711 µM); in experiment [2] it was 0.016 µg/mL (≈ 0.0181 µM); in experiment [3] (setting [5]), 1 µg/mL (≈ 1.13 µM).

For the compound `CCCCCCCCc1ccc2c(c1)C(C)N([C@@H](CCN)C(=O)N(C)[C@@H]1C(=O)N[C@@H](C)C(=O)N[C@H](C(=O)NCC#N)Cc3ccc(OCCN)c(c3)-c3cc1ccc3OCCN)C2=O` (stereo partly drawn) [Compound 489], the MIC in experiment [1] (setting [4]) was 0.19 µg/mL (≈ 0.216 µM); in experiment [2], 0.25 µg/mL (≈ 0.284 µM); in experiment [3] (setting [5]), 8 µg/mL (≈ 9.09 µM).

On to `CCCCCCc1ccc(-c2ncc(C(=O)N[C@@H](CCN)C(=O)N(C)[C@@H]3C(=O)N[C@@H](C)C(=O)N[C@H](C(=O)NCC#N)Cc4ccc(O)c(c4)-c4cc3ccc4OCCN)c(C)n2)cc1` [Compound 504], for which the MIC worked out at 0.094 µg/mL (≈ 0.107 µM) in experiment [1] (setting [4]), 0.016 µg/mL (≈ 0.0183 µM) in experiment [2] and 0.25 µg/mL (≈ 0.286 µM) in experiment [3] (setting [5]).

With `Cc1cc(-c2ccc(CC(C)C)nn2)ccc1C(=O)N[C@@H](CCN)C(=O)N(C)[C@@H]1C(=O)N[C@@H](C)C(=O)N[C@H](C(=O)NCC#N)Cc2ccc(OCCN)c(c2)-c2cc1ccc2OCCN` [Compound 180], the MIC stood at 1 µg/mL (≈ 1.12 µM) in experiment [1] (setting [4]), 0.38 µg/mL (≈ 0.427 µM) in experiment [2] and 8 µg/mL (≈ 8.99 µM) in experiment [3] (setting [5]).
